The test system of one data set is P–gp. Put plainly: Partition coefficient to membrane protein from Equations (1) and (2), binding to P–gp only. It counts as physicochemical, mouse. As to conditions: binding to the protein P–gp only; for KPW→P: aqueous phase to protein; for KPLb→P: lipid bilayer to protein. The source says:
From the partition coefficient obtained for the native membranes, KPW→M , and that for the model lipid bilayers, KPW→Lb , one can calculate the partition coefficient between the aqueous phase and the proteins in the membrane, KPW→P , and from the lipid bilayer to the proteins, KPLb→P , Equations (1) and (2), [40]. (1) KPW→M VM=KPW→PVP+KPW→Lb VLb (2) KPLb→P=KPW→P/KPW→Lb
In Equation (1) it is necessary to include the volume occupied by the proteins, and the values obtained will, therefore, depend on whether it is considered that the amphiphile may interact with all proteins in the membrane or with P–gp only.

The next data set has as its target T1, mouse P–gp (mP–gp) (Mus musculus, UniProt P21447).
T1 construct: made in house; host or cells: High-Five insect cells (Invitrogen), recombinant baculovirus; total membrane vesicles
As to the kind of experiment: P–gp ATPase activity (vanadate-sensitive, end point Pi release) in native membranes. As to conditions: Equation (S1), total modulator concentration; only activation for NBD–C4; constraint K1≤K2 for NBD–C8 and NBD–LysoMPE; [75% confidence interval]; read-out: K1, dissociation constant for P–gp activation. It counts as biochemical.

Data set [1] in a line: Calculation of local concentrations of the amphiphiles in membrane and aqueous medium from partition coefficients. As to conditions: for fraction associated with the lipid bilayer of the native membrane: 0.107 mg of protein per mL; for concentration associated with the membrane: total concentration 60 µM; for fraction associated with the membranes: IAAP displacement conditions, 1 mg of protein per mL; for fraction of amphiphile in the membrane associated with proteins: low amphiphile concentrations, away from saturation; for concentration in the aqueous phase: total amphiphile 50 µM, partition to native membranes. The source says: A major limitation of the models used to analyze the effects on P–gp’s ATPase activity and IAAP displacement is the use of global concentrations. Interaction of the amphiphiles with P–gp is considered to occur from the membrane and, therefore, what is relevant is the amphiphile concentration in the lipid bilayer where P–gp is embedded. The importance of using local concentration in the analysis of the interaction of small molecules with membrane proteins has been pointed out before (e.g., [33, 35, 37, 46, 84, 85]), but, unfortunately, it is still overlooked. The local concentrations may be calculated from the partition coefficient of the amphiphiles between the aqueous media and the model membranes with the relevant lipid composition. […] An intermediate affinity is obtained for NBD–LysoMPE in spite of its longer aliphatic chain. This is due to its bigger and much polar (charged) head group. From the partition coefficients one may calculate the local concentration of amphiphile in the membrane for a given total concentration of amphiphile. At the concentration of native membranes used in the ATPase assays (0.107 mg of protein per mL), 2% of the NBD–C4 is associated with the lipid bilayer of the native membrane (see Supplementary Information, Section S10 for details). As expected, for the more lipophilic amphiphiles, the fraction associated with the lipid bilayer increases, being 53% for NBD–C8 and 13% for NBD–LysoMPE. In the IAAP displacement experiments, the amount of native membranes is almost 10 times higher (1 mg of protein per mL), leading to 18% of NBD–C4 associated with the membranes, and 91% and 58% for the case of NBD–C8 and NBD–LysoMPE, respectively.
S10 – Calculation of the local concentration of the amphiphiles in the membrane and in the […]
The concentration of phospholipids (PL) in a solution containing native membranes is calculated from the concentration of protein and the ratio of PLs to prot eins (0.57 g PL/g P , average PL molar mass of 750 g/mol). The volume of the lipid bilayer (VLb) is then calculated considering a density of 1 g/cm3 for the phospholipids.
Typical values for the conditions of the ATPase activity assays are given be low:
The volume occupied by proteins in the membrane (VP) was calculated considering a density of 1.2 g/cm3 (being 8.9 × 10‐5 × VT, and the total volume of native membranes is 1.5 × 10‐4 × VT.
The IAAP displacement assay was performed with a protein concentration of 1 g/L, leading to proportionally higher volumes of the lipid bilayer and proteins.
Knowing the partition coefficients of the ligand one may calculate the fractions in each medium: […]
The fraction of amphiphile in the membrane (lipid bilayer plus membrane proteins), is given by:
MLbP PLKVKV KVWL→→ →b WP WM+ fffVK VK VVK VK VLLL WL=+= =bPP PM , WP L++ ++→→ →→b WP WLbP PWP Lb WPbP P where WMK → is the partition coeff icient obtained experimentally between the aqueous media P and the native membranes.
The above equations are only valid if the system is away from saturation (at low concentrations of amphiphiles relative to the binding agents). At relatively high amphiphile concentrations, the proteins may become saturated, leading to a decrease in the apparent partition coefficient and to an increase in the relative fraction of amphiphile associated with the lipid bilayer.
From the above equations one may calculate directly the concentration of amphiphile in each […]
To evaluate if the aqueous medium is saturated, this concentration sho uld be co mpared with the ligand critical aggregation concentration. P ossible perturbation of the lipid bilayer is best evaluated from the mo la r ratio of lipids to ligand bound (PL:L)

For data set [2] the following is noted: cited from earlier work.

These results are taken from PMC9862096, “Interaction of a Homologous Series of Amphiphiles with P-glycoprotein in a Membrane Environment—Contributions of Polar and Non-Polar Interactions” (Pharmaceutics, 2023).

T1 sequence (P21447 whole entry): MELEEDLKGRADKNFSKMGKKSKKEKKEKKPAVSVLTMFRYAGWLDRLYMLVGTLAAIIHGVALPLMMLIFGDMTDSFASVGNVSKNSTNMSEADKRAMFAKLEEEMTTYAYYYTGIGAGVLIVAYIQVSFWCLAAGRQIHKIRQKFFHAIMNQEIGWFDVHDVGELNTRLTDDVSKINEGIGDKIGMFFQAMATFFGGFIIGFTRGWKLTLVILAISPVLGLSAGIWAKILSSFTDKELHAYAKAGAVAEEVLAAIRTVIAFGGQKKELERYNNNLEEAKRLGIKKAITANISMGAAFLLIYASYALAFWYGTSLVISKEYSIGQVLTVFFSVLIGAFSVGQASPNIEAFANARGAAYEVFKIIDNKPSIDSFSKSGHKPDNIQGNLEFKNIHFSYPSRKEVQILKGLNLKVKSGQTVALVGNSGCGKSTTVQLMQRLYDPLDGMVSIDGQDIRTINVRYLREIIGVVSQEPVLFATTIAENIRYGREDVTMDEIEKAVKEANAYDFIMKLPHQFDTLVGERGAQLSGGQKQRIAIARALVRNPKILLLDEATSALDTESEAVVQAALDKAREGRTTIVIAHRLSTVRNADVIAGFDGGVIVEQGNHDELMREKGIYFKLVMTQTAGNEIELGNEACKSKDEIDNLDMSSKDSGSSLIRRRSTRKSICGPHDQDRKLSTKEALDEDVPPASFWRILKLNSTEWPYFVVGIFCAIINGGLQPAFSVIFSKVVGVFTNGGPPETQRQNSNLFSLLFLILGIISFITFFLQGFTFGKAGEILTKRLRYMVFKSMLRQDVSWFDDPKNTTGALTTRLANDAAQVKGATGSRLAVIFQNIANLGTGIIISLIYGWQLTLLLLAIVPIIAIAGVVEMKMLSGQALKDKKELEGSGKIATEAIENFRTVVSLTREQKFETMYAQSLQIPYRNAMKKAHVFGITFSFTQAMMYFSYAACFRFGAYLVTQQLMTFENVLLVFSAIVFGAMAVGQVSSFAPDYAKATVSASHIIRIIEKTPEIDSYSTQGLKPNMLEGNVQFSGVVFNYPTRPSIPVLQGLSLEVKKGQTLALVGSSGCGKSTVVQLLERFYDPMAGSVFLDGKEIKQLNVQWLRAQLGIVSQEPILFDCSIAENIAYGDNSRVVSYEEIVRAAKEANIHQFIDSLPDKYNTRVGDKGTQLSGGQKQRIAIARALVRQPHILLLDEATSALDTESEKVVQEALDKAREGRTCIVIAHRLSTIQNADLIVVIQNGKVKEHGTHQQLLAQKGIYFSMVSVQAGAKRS

With `CCCCNc1ccc([N+](=O)[O-])c2nonc12` [NBD–C4], in the data set with P–gp, the KPW→P is 6.9 × 10^4 and the KPLb→P came to 176. At mouse P–gp (mP–gp), the Kd was determined as 84 µM. In data set [1] (ATPase assay conditions), the “fraction associated with the lipid bilayer of the native membrane” value (from here on “fraction associated … of the native membrane”) was 2% and the “concentration associated with the membrane” value was 1.4 µM. Moreover, the “concentration associated with the membrane” value in data set [1] (IAAP assay conditions (membrane 10-fold higher)) is given as 11 µM. In addition, in data set [1], the “fraction associated with the membranes” value was 18% and the “fraction of amphiphile in the membrane associated with proteins” value is 72%.
On to `CCCCCCCCCCCCCC(=O)OCC(O)COP(=O)(O)OCCNc1ccc([N+](=O)[O-])c2nonc12` (centres unmarked) [NBD–LysoMPE], for which the “characteristic time of translocation between membrane leaflets” value in data set [2] is listed as “several hours”. Moreover, the Kd on mouse P–gp (mP–gp) is 13 µM. Moreover, in data set [1] (ATPase assay conditions), the “fraction associated … of the native membrane” value is 13% and the “concentration in the aqueous phase” value is on record as 12 µM. Besides, the “concentration in the aqueous phase” value in data set [1] (IAAP assay conditions) is listed as 2 µM. In data set [1], the “fraction associated with the membranes” value is reported as 58%.
As to `CCCCCCCCNc1ccc([N+](=O)[O-])c2nonc12` [NBD–C8], in data set [2] (Section 3.4 and ref 77), the “time for equilibration between both membrane leaflets (translocation)” value was “within a few seconds”. In addition, in the data set with P–gp, the KPW→P is 2.3 × 10^5 and the KPLb→P turned out to be 12. Also, the Kd at mouse P–gp (mP–gp) amounted to 17 µM. Moreover, in data set [1] (ATPase assay conditions), the “fraction associated … of the native membrane” value is reported as 53% and the “concentration in the aqueous phase” value is given as 21 µM. Further, in data set [1] (IAAP assay conditions), the “concentration in the aqueous phase” value is recorded as 4 µM. For the same compound, in data set [1], the “fraction associated with the membranes” value is recorded as 91% and the “fraction of amphiphile in the membrane associated with proteins” value is listed as 15%.
